{"source": "paper PMC8119899", "about": "“A Single Mutation in the Outer Lipid-Facing Helix of a Pentameric Ligand-Gated Ion Channel Affects Channel Function Through a Radially-Propagating Mechanism” (Frontiers in Molecular Biosciences, 2021)", "assay_type_in_all_cases": "cell-based", "key": {"[1]": {"biological_target": "T1, 5-HT3A receptor K255L (Mus musculus, UniProt P23979, K282L)", "T1 construct": "expressed in transfected cells", "T1 sequence (P23979 24-489 K282L)": "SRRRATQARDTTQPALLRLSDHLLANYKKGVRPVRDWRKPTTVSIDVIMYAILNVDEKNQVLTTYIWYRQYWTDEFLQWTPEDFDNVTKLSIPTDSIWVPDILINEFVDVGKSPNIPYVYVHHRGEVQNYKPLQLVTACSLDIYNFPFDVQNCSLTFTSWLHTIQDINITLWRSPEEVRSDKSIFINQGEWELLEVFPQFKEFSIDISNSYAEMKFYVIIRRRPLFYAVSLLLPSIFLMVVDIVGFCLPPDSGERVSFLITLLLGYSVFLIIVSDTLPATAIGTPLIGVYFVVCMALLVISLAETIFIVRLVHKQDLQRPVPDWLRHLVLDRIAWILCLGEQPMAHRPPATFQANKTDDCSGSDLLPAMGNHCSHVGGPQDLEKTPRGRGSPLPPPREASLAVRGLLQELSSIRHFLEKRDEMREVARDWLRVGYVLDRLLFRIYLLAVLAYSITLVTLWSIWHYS", "assay": "FlexStation membrane potential dye, 5-HT response, K255L receptor in HEK293 cells", "parameters": "key: Mutants that did not respond in the functional assay are marked as non functional (NF)", "procedure": "(§1) The mouse 5-HT3A cDNA (Q6J1J7) in pcDNA3.1 (for HEK cell transfection) or pGEMHE (for RNA production) was modified by QuikChange site-directed mutagenesis (Agilent Technologies) to create point mutants (verified by sequencing).\nHuman embryonic kidney (HEK) 293 cells were maintained at 37 °C at 5% CO2 in a humidified atmosphere, in Dulbecco's Modified Eagle's Medium/Nutrient Mix F12 (1:1) (Invitrogen, Paisley, UK) with GlutaMAX^TM and 10% fetal bovine serum (GE Healthcare) (DMEM/FBS) and passaged when confluent. Five micrograms of WT or mutant 5-HT3A DNA and 30 μl polyethyleneamine (Polysciences) incubated for 10 min in 1 mL DMEM was added to 60% confluent HEK293 cells for transfection, and cells grown for 2 days before assays.\nAs described previously (Price and Lummis, [2005]) cells were incubated for 45 min with fluorescent membrane potential-sensitive dye (Membrane Potential Blue kit, Molecular Devices) diluted in Flex buffer (10 mM HEPES, 115 mM NaCl, 1 mM KCl, 1 mM CaCl2, 1 mM MgCl2, and 10 mM glucose, pH 7.4), and subsequently assayed at room temperature for 180 s, with readings every 2 s. […] (log of the concentration of ligand), a is the minimum response, b is the maximum response, and nH is the Hill slope."}, "[2]": {"biological_target": "T2, 5-HT3A receptor K255A (Mus musculus, UniProt P23979, K282A)", "T2 sequence (P23979 24-489 K282A)": "T1 sequence (P23979 24-489 K282L) with L259A", "assay": "Two-electrode voltage clamp, 5-HT response, K255A receptor in Xenopus oocytes", "conditions": "mean and SEM, n ≥ 3", "procedure": "as §1\n(§2) Xenopus laevis oocytes from EcoCyte Biosciences (Austin Texas) were injected with 100 pg cRNA (generated with the ThermoFisher mMESSAGE mMACHINE T7 transcription kit) and left in injection media [88 mM NaCl, 2.4 mM NaHCO3, 1 mM KCl, 0.82 mM MgSO4 ·7H20, 5 mM Tris-HCl, 0.33 mM Ca(NO3)2·4H2O, 0.41 mM CaCl2·2H2O, 2.51 mM sodium pyruvate, 0.12 mg/ml theophylline, 0.05 mg/ml gentamicin, pH 7.5] at 16 °C for 24 h. […] The holding potential was −60 mV, using glass microelectrodes with a resistance of approximately 1 MΩ backfilled with 3M KCl."}, "[3]": {"biological_target": "T3, 5-HT3A receptor C290A (Mus musculus, UniProt P23979, C317A)", "T3 sequence (P23979 24-489 C317A)": "T1 sequence (P23979 24-489 K282L) with L259K, C294A", "assay": "Two-electrode voltage clamp, 5-HT response, C290A receptor in Xenopus oocytes", "conditions": "mean and SEM, n ≥ 3", "procedure": "as §1, §2"}}, "note": "Where a chain is given by its changes, count along the chain named.", "data": [{"smiles": "NCCc1c[nH]c2ccc(O)cc12", "note": "[5-HT]", "values": [{"measurement": "pEC50", "setting": "[1]", "result": "NF"}, {"measurement": "nH", "setting": "[2]", "result": "1.9 ± 0.5"}, {"measurement": "nH", "setting": "[3]", "result": "0.5 ± 0.1"}]}]}
